# According to patent US20250179061A1 (SIRONAX LTD., priority 2022, published 2025):
# System: HT-29 cells
# Experiment: HT-29 necroptosis cell viability assay (TNF-α/SMAC mimetic/zVAD-FMK, CellTiter-Glo)
# Assay type: cell-based
# Conditions: Homo sapiens, HT-29, HT-29 necroptosis cell viability assay; class symbols for IC50; read-out: Activity
# How it was run: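 Necroptosis was triggered by TNF-α (10 ng/ml), SMAC mimetic (6 μM) and zVAD-FMK (10 μM) in serum-free medium during 20 h compound exposure (10 concentrations, threefold steps) of HT-29 cells. IC50 from duplicate dose-responses uses CellTiter-Glo ATP luminescence as viability read-out.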
row,SMILES,IC50 [nM]
1,"CC(C)(C)OC(=O)N1CCC2(CC1)CN(c1cc(Oc3ccc(-n4ncn(Cc5c(F)cccc5F)c4=O)cc3)ccn1)C2 [Example 480, tert-butyl2-(4-(4-(4-(2,6-difluorobenzyl)-5-oxo-4,5-dihydro-1H-1,2,4-triazol-1-yl)phenoxy)pyridin-2-yl)-2,7-diazaspiro[3.5]nonane-7-carboxylate]",< 100
2,"O=c1n(Cc2c(F)cccc2F)cnn1-c1ccc(Oc2ccnc(N3C[C@H]4COC[C@H]4C3)c2)cc1 [Example 481, 4-(2,6-difluorobenzyl)-2-(4-((2-((3aR,6aS)-tetrahydro-1H-furo[3,4-c]pyrrol-5(3H)-yl)pyridin-4-yl)oxy)phenyl)-2,4-dihydro-3H-1,2,4-triazol-3-one]",100 to 1000
3,"O=C1CC2(CCOCC2)CN1c1cc(Oc2ccc(-n3ncn(Cc4c(F)cccc4F)c3=O)cc2)ccn1 [Example 482, 2-(4-(4-(4-(2,6-difluorobenzyl)-5-oxo-4,5-dihydro-1H-1,2,4-triazol-1-yl)phenoxy)pyridin-2-yl)-8-oxa-2-azaspiro[4.5]decan-3-one]",100 to 1000
4,"O=c1n(Cc2c(F)cccc2F)cnn1-c1ccc(Oc2ccnc(N3CC(OCC4CC4)C3)c2)cc1 [Example 483, 2-(4-((2-(3-(cyclopropylmethoxy)azetidin-1-yl)pyridin-4-yl)oxy)phenyl)-4-(2,6-difluorobenzyl)-2,4-dihydro-3H-1,2,4-triazol-3-one]",100 to 1000
5,"O=c1n(Cc2c(F)cccc2F)cnn1-c1ccc(Oc2ccnc(NCC3CCCO3)c2)cc1 (stereo not drawn) [Example 484, 4-(2,6-difluorobenzyl)-2-(4-((2-(((tetrahydrofuran-2-yl)methyl)amino)pyridin-4-yl)oxy)phenyl)-2,4-dihydro-3H-1,2,4-triazol-3-one]",100 to 1000
6,"CN(c1cc(Oc2ccc(-n3ncn(Cc4c(F)cccc4F)c3=O)cc2)ccn1)C1CC1 [Example 485, 2-(4-((2-(cyclopropyl(methyl)amino)pyridin-4-yl)oxy)phenyl)-4-(2,6-difluorobenzyl)-2,4-dihydro-3H-1,2,4-triazol-3-one]",100 to 1000
7,"CCOC1CN(c2cc(Oc3ccc(-n4ncn(Cc5c(Cl)cccc5Cl)c4=O)cc3)ccn2)C1 [Example 486, 4-(2,6-dichlorobenzyl)-2-(4-((2-(3-ethoxyazetidin-1-yl)pyridin-4-yl)oxy)phenyl)-2,4-dihydro-3H-1,2,4-triazol-3-one]",100 to 1000

# Same assay, conditions: Homo sapiens, HT-29, HT-29 necroptosis cell viability, IC50 class symbols; read-out: Activity
row,SMILES,IC50 [nM]
1,"Cc1nc(N2CCC(C)(C#N)C2)sc1Oc1ccc(-n2ncn(Cc3c(F)cccc3F)c2=O)cc1 (stereo not drawn) [Example 454, 1-(5-(4-(4-(2,6-difluorobenzyl)-5-oxo-4,5-dihydro-1H-1,2,4-triazol-1-yl)phenoxy)-4-methylthiazol-2-yl)-3-methylpyrrolidine-3-carbonitrile]",< 100
2,"Cc1nc(N2CC3(CCN3)C2)sc1Oc1ccc(-n2ncn(Cc3c(F)cccc3F)c2=O)cc1 [Example 455, 4-(2,6-difluorobenzyl)-2-(4-((4-methyl-2-(1,6-diazaspiro[3.3]heptan-6-yl)thiazol-5-yl)oxy)phenyl)-2,4-dihydro-3H-1,2,4-triazol-3-one]",< 100
3,"Cc1nc(N2CC(OC(C)(C)C)C2)sc1Oc1ccc(-n2ncn(Cc3c(F)cccc3F)c2=O)cc1 [Example 456, 2-(4-((2-(3-(tert-butoxy)azetidin-1-yl)-4-methylthiazol-5-yl)oxy)phenyl)-4-(2,6-difluorobenzyl)-2,4-dihydro-3H-1,2,4-triazol-3-one]",< 100
4,"Cc1nc(N2CC3(CCO3)C2)sc1Oc1ccc(-n2ncn(Cc3c(F)cccc3F)c2=O)cc1 [Example 457, 4-(2,6-difluorobenzyl)-2-(4-((4-methyl-2-(1-oxa-6-azaspiro[3.3]heptan-6-yl)thiazol-5-yl)oxy)phenyl)-2,4-dihydro-3H-1,2,4-triazol-3-one]",< 100
5,"Cc1nc(N)sc1Sc1ccc(-n2ncn(Cc3ccccc3)c2=O)cc1 [Example 458, 2-(4-((2-amino-4-methylthiazol-5-yl)thio)phenyl)-4-benzyl-2,4-dihydro-3H-1,2,4-triazol-3-one]",< 100
6,"Cc1nc(C(C)(C)O)sc1Oc1ccc(-n2ncn(Cc3c(F)cccc3F)c2=O)cc1F [Example 462, 4-(2,6-difluorobenzyl)-2-(3-fluoro-4-((2-(2-hydroxypropan-2-yl)-4-methylthiazol-5-yl)oxy)phenyl)-2,4-dihydro-3H-1,2,4-triazol-3-one]",< 100
7,"Cc1nc(C(C)(C)O)sc1Oc1ccc(-n2nc3n(c2=O)C(c2ccccc2)CC3)cc1F (stereo not drawn) [Example 463, 2-(3-fluoro-4-((2-(2-hydroxypropan-2-yl)-4-methylthiazol-5-yl)oxy)phenyl)-5-phenyl-2,5,6,7-tetrahydro-3H-pyrrolo[2,1-c][1,2,4]triazol-3-one]",< 100
8,"Cc1cccnc1Cn1cnn(-c2ccc(Oc3sc(C(C)(C)O)nc3C)c(F)c2)c1=O [Example 464, 2-(3-fluoro-4-((2-(2-hydroxypropan-2-yl)-4-methylthiazol-5-yl)oxy)phenyl)-4-((3-methylpyridin-2-yl)methyl)-2,4-dihydro-3H-1,2,4-triazol-3-one]",100 to 1000
9,"Cc1nc(C(C)(C)O)sc1Oc1ncc(-n2ncn(Cc3c(F)cccc3F)c2=O)cc1F [Example 465, 4-(2,6-difluorobenzyl)-2-(5-fluoro-6-((2-(2-hydroxypropan-2-yl)-4-methylthiazol-5-yl)oxy)pyridin-3-yl)-2,4-dihydro-3H-1,2,4-triazol-3-one]",< 100
10,"Cc1nc(C(C)(C)O)sc1Oc1ccc(-n2ncn(Cc3ncccc3Cl)c2=O)cc1F [Example 466, 4-((3-chloropyridin-2-yl)methyl)-2-(3-fluoro-4-((2-(2-hydroxypropan-2-yl)-4-methylthiazol-5-yl)oxy)phenyl)-2,4-dihydro-3H-1,2,4-triazol-3-one]",< 100
11,"Cc1nc(C(C)(C)O)sc1Oc1ccc(-n2ncn(Cc3cnccc3Cl)c2=O)cc1F [Example 467, 4-((4-chloropyridin-3-yl)methyl)-2-(3-fluoro-4-((2-(2-hydroxypropan-2-yl)-4-methylthiazol-5-yl)oxy)phenyl)-2,4-dihydro-3H-1,2,4-triazol-3-one]",100 to 1000
12,"Cc1nc(C(C)(C)O)sc1Oc1ncc(-n2ncn(Cc3c(F)cccc3F)c2=O)cc1Cl [Example 468, 2-(5-chloro-6-((2-(2-hydroxypropan-2-yl)-4-methylthiazol-5-yl)oxy)pyridin-3-yl)-4-(2,6-difluorobenzyl)-2,4-dihydro-3H-1,2,4-triazol-3-one]",< 100
13,"Cc1nc(C(C)(C)O)sc1Oc1ccc(-n2ncn(Cc3ccccc3F)c2=O)cc1F [Example 469, 2-(3-fluoro-4-((2-(2-hydroxypropan-2-yl)-4-methylthiazol-5-yl)oxy)phenyl)-4-(2-fluorobenzyl)-2,4-dihydro-3H-1,2,4-triazol-3-one]",< 100
14,"Cc1nc(C(C)(C)O)sc1Oc1ccc(-n2ncn(Cc3cc(F)ccc3F)c2=O)cc1F [Example 470, 4-(2,5-difluorobenzyl)-2-(3-fluoro-4-((2-(2-hydroxypropan-2-yl)-4-methylthiazol-5-yl)oxy)phenyl)-2,4-dihydro-3H-1,2,4-triazol-3-one]",< 100
15,"Cc1nc(C(C)(C)O)sc1Oc1ccc(-n2ncn(Cc3cc(Cl)ccn3)c2=O)cc1F [Example 471, 4-((4-chloropyridin-2-yl)methyl)-2-(3-fluoro-4-((2-(2-hydroxypropan-2-yl)-4-methylthiazol-5-yl)oxy)phenyl)-2,4-dihydro-3H-1,2,4-triazol-3-one]",1000 to 10000
16,"Cc1c(C(C)(C)O)noc1Oc1ccc(-n2ncn(Cc3c(F)cccc3F)c2=O)cc1F [Example 472, 4-(2,6-difluorobenzyl)-2-(3-fluoro-4-((3-(2-hydroxypropan-2-yl)-4-methylisoxazol-5-yl)oxy)phenyl)-2,4-dihydro-3H-1,2,4-triazol-3-one]",100 to 1000
17,"Cc1nc(C(C)(C)O)sc1Oc1ccc(-n2ncn(Cc3c(F)cccc3F)c2=O)cc1 [Example 473, 4-(2,6-difluorobenzyl)-2-(4-((2-(2-hydroxypropan-2-yl)-4-methylthiazol-5-yl)oxy)phenyl)-2,4-dihydro-3H-1,2,4-triazol-3-one]",< 100
18,"CC1(C)COC(Nc2cc(Oc3ccc(-n4ncn(Cc5c(F)cccc5F)c4=O)cc3F)c(F)cn2)=N1 [Example 474, 4-(2,6-difluorobenzyl)-2-(4-((2-((4,4-dimethyl-4,5-dihydrooxazol-2-yl)amino)-5-fluoropyridin-4-yl)oxy)-3-fluorophenyl)-2,4-dihydro-3H-1,2,4-triazol-3-one]",100 to 1000
19,"Cc1c(C#N)noc1Oc1ccc(-n2ncn(Cc3c(F)cccc3F)c2=O)cc1F [Example 475, 5-(4-(4-(2,6-difluorobenzyl)-5-oxo-4,5-dihydro-1H-1,2,4-triazol-1-yl)-2-fluorophenoxy)-4-methylisoxazole-3-carbonitrile]",< 100
20,"Cc1c(C(N)=O)noc1Oc1ccc(-n2ncn(Cc3c(F)cccc3F)c2=O)cc1F [Example 476, 5-(4-(4-(2,6-difluorobenzyl)-5-oxo-4,5-dihydro-1H-1,2,4-triazol-1-yl)-2-fluorophenoxy)-4-methylisoxazole-3-carboxamide]",< 100
21,"CCOC(=O)c1noc(Oc2ccc(-n3ncn(Cc4c(F)cccc4F)c3=O)cc2F)c1C [Example 477, ethyl 5-(4-(4-(2,6-difluorobenzyl)-5-oxo-4,5-dihydro-1H-1,2,4-triazol-1-yl)-2-fluorophenoxy)-4-methylisoxazole-3-carboxylate]",100 to 1000
22,"CN(c1cc(Oc2ccc(-n3ncn(Cc4c(F)cccc4F)c3=O)cc2)ccn1)C1CC(F)(F)C1 [Example 478, 4-(2,6-difluorobenzyl)-2-(4-((2-((3,3-difluorocyclobutyl)(methyl)amino)pyridin-4-yl)oxy)phenyl)-2,4-dihydro-3H-1,2,4-triazol-3-one]",100 to 1000
23,"Cn1ncn(Cc2ccc(-n3ncn(Cc4c(F)cccc4F)c3=O)cc2)c1=O [Example 479, 4-(2,6-difluorobenzyl)-2-(4-((1-methyl-5-oxo-1,5-dihydro-4H-1,2,4-triazol-4-yl)methyl)phenyl)-2,4-dihydro-3H-1,2,4-triazol-3-one]",1000 to 10000
